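A five-concentration, 48-hour dose response in 96-well plates underlies each endpoint, interpolated linearly between surrounding concentrations. GI50 marks 50% less growth.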 Active and inactive are the calls of the source. No stated cut-off is given here; in the data, active = GI50 up to about 1.1 µM and inactive = higher.
Key:
Assay in all cases: NCI anticancer screen, dose series, 48 h
CAKI-1 = test system: CAKI-1
LOX IMVI = test system: LOX IMVI
NCI-H460 = test system: NCI-H460
KM12 = test system: KM12
ACHN = test system: ACHN
NCI-H23 = test system: NCI-H23
NCI-H522 = test system: NCI-H522
MDA-N = test system: MDA-N
M14 = test system: M14
UO-31 = test system: UO-31
HOP-62 = test system: HOP-62
SW-620 = test system: SW-620
NCI/ADR-RES = test system: NCI/ADR-RES
RPMI-8226 = test system: RPMI-8226
DU-145 = test system: DU-145
MOLT-4 = test system: MOLT-4
SN12C = test system: SN12C
786-0 = test system: 786-0
SF-268 = test system: SF-268
HT-29 = test system: HT-29
UACC-257 = test system: UACC-257
OVCAR-5 = test system: OVCAR-5
Hs-578T = test system: Hs-578T
CCRF-CEM = test system: CCRF-CEM
A498 = test system: A498
HL-60 = test system: HL-60
EKVX = test system: EKVX
PC-3 = test system: PC-3
SR = test system: SR
A549 = test system: A549
SF-295 = test system: SF-295
HCT-15 = test system: HCT-15
MDA-MB-435 = test system: MDA-MB-435
K562 = test system: K562
HOP-92 = test system: HOP-92
OVCAR-4 = test system: OVCAR-4
T47D = test system: T47D
UACC-62 = test system: UACC-62
MDA-MB-231 = test system: MDA-MB-231
COLO 205 = test system: COLO 205
OVCAR-8 = test system: OVCAR-8
SK-OV-3 = test system: SK-OV-3
SK-MEL-2 = test system: SK-MEL-2
HCC 2998 = test system: HCC 2998
MCF7 = test system: MCF7
BT-549 = test system: BT-549
SNB-19 = test system: SNB-19
OVCAR-3 = test system: OVCAR-3
NCI-H226 = test system: NCI-H226
IGROV-1 = test system: IGROV-1
SF-539 = test system: SF-539
SK-MEL-28 = test system: SK-MEL-28
TK-10 = test system: TK-10
HCT-116 = test system: HCT-116
U-251 = test system: U-251
SK-MEL-5 = test system: SK-MEL-5
Malme-3M = test system: Malme-3M
RXF 393 = test system: RXF 393
SNB-75 = test system: SNB-75

For `COc1cccc(CC(=O)N2CCN(CCCc3ccccc3)CC2)c1`, the GI50 (CAKI-1) was 80.4 µM (inactive), the GI50 (LOX IMVI) was > 100 µM (inactive) and the GI50 (NCI-H460) was > 100 µM (inactive). The GI50 (KM12) was > 100 µM (inactive), the GI50 (ACHN) was 83.8 µM (inactive) and the GI50 (NCI-H23) was 36.1 µM (inactive). The GI50 (NCI-H522) was 57.9 µM (inactive), the GI50 (MDA-N) was 90.8 µM (inactive) and the GI50 (M14) was 63.8 µM (inactive). For the same compound, the GI50 (UO-31) was 39.1 µM (inactive), the GI50 (HOP-62) was > 100 µM (inactive) and the GI50 (SW-620) was > 100 µM (inactive). The GI50 (NCI/ADR-RES) was 27.9 µM (inactive), the GI50 (RPMI-8226) was 43.6 µM (inactive) and the GI50 (DU-145) was > 100 µM (inactive). For the same compound, the GI50 (MOLT-4) was 54.7 µM (inactive), the GI50 (SN12C) was > 100 µM (inactive) and the GI50 (786-0) was > 100 µM (inactive). The GI50 (SF-268) was > 100 µM (inactive), the GI50 (HT-29) was 31.4 µM (inactive) and the GI50 (UACC-257) was 37.3 µM (inactive). The GI50 (OVCAR-5) was > 100 µM (inactive), the GI50 (Hs-578T) was > 100 µM (inactive) and the GI50 (CCRF-CEM) was 89.3 µM (inactive). For the same compound, the GI50 (A498) was > 100 µM (inactive), the GI50 (HL-60) was 61.2 µM (inactive) and the GI50 (EKVX) was 59.6 µM (inactive). The GI50 (PC-3) was > 100 µM (inactive), the GI50 (SR) was 42.1 µM (inactive) and the GI50 (A549) was 66.5 µM (inactive). The GI50 (SF-295) was 47.5 µM (inactive), the GI50 (HCT-15) was 45.9 µM and the GI50 (MDA-MB-435) was 70.6 µM (inactive). For the same compound, the GI50 (K562) was 33.9 µM (inactive), the GI50 (HOP-92) was 25.2 µM (inactive) and the GI50 (OVCAR-4) was 34.4 µM (inactive). For the same compound, the GI50 (T47D) was 22.2 µM (inactive), the GI50 (UACC-62) was > 100 µM (inactive) and the GI50 (MDA-MB-231) was > 100 µM (inactive). The GI50 (COLO 205) was 76.7 µM (inactive), the GI50 (OVCAR-8) was 53 µM (inactive) and the GI50 (SK-OV-3) was > 100 µM (inactive). For the same compound, the GI50 (SK-MEL-2) was > 100 µM (inactive), the GI50 (HCC 2998) was 98.4 µM (inactive) and the GI50 (MCF7) was 60.3 µM (inactive). For the same compound, the GI50 (BT-549) was 33.8 µM (inactive), the GI50 (SNB-19) was > 100 µM (inactive) and the GI50 (OVCAR-3) was 60.1 µM (inactive). For the same compound, the GI50 (NCI-H226) was > 100 µM (inactive), the GI50 (IGROV-1) was > 100 µM (inactive) and the GI50 (SF-539) was > 100 µM (inactive). The GI50 (SK-MEL-28) was > 100 µM (inactive), the GI50 (TK-10) was 78.7 µM (inactive) and the GI50 (HCT-116) was 65.6 µM (inactive). For the same compound, the GI50 (U-251) was > 100 µM (inactive) and the GI50 (SK-MEL-5) was 23.2 µM (inactive).
In the case of `CCn1c(=O)c2c3ccc(O)cc3[nH]c2c2ccc(O)cc21`, the GI50 (CAKI-1) is reported as > 100 µM (inactive), the GI50 (KM12) is reported as > 100 µM (inactive) and the GI50 (ACHN) is reported as 96.4 µM (inactive). For the same compound, the GI50 (NCI-H23) was > 100 µM (inactive), the GI50 (NCI-H522) was 93.3 µM (inactive) and the GI50 (MDA-N) was 66.4 µM (inactive). The GI50 (M14) was > 100 µM (inactive), the GI50 (UO-31) was > 100 µM (inactive) and the GI50 (HOP-62) was > 100 µM (inactive). For the same compound, the GI50 (SW-620) was > 100 µM (inactive), the GI50 (NCI/ADR-RES) was > 100 µM (inactive) and the GI50 (DU-145) was > 100 µM (inactive). The GI50 (MOLT-4) was 39.1 µM (inactive), the GI50 (SN12C) was 81.5 µM (inactive) and the GI50 (SF-268) was > 100 µM (inactive). The GI50 (HT-29) was > 100 µM (inactive), the GI50 (Malme-3M) was 95.9 µM (inactive) and the GI50 (UACC-257) was > 100 µM (inactive). For the same compound, the GI50 (OVCAR-5) was > 100 µM (inactive), the GI50 (Hs-578T) was 44.1 µM (inactive) and the GI50 (CCRF-CEM) was 55.8 µM (inactive). The GI50 (A498) was > 100 µM (inactive), the GI50 (EKVX) was > 100 µM (inactive) and the GI50 (PC-3) was > 100 µM (inactive). For the same compound, the GI50 (SR) was 55.6 µM (inactive), the GI50 (A549) was > 100 µM (inactive) and the GI50 (SF-295) was > 100 µM (inactive). The GI50 (HCT-15) was over 100 µM, the GI50 (MDA-MB-435) was 61 µM (inactive) and the GI50 (K562) was 83.6 µM (inactive). For the same compound, the GI50 (RXF 393) was > 100 µM (inactive), the GI50 (HOP-92) was > 100 µM (inactive) and the GI50 (OVCAR-4) was > 100 µM (inactive). The GI50 (T47D) was 51.2 µM (inactive), the GI50 (UACC-62) was 57 µM (inactive) and the GI50 (MDA-MB-231) was 64.4 µM (inactive). The GI50 (COLO 205) was > 100 µM (inactive), the GI50 (OVCAR-8) was > 100 µM (inactive) and the GI50 (SK-OV-3) was > 100 µM (inactive). For the same compound, the GI50 (HCC 2998) was > 100 µM (inactive), the GI50 (MCF7) was 50.7 µM (inactive) and the GI50 (SNB-75) was 66.2 µM (inactive). For the same compound, the GI50 (BT-549) was > 100 µM (inactive), the GI50 (SNB-19) was > 100 µM (inactive) and the GI50 (OVCAR-3) was > 100 µM (inactive). For the same compound, the GI50 (NCI-H226) was > 100 µM (inactive), the GI50 (IGROV-1) was > 100 µM (inactive) and the GI50 (SF-539) was > 100 µM (inactive). For the same compound, the GI50 (SK-MEL-28) was > 100 µM (inactive), the GI50 (TK-10) was > 100 µM (inactive) and the GI50 (HCT-116) was 45.4 µM (inactive). The GI50 (U-251) was 56.8 µM (inactive) and the GI50 (SK-MEL-5) was 30.9 µM (inactive).
